Data on 124 molecules can be found in the OPERA property sets (Mansouri et al. 2018).

Structures are written as SMILES. Residues, ends and D or L forms follow the SMILES beside them. *: point of attachment. Cbz = O=C(OCc1ccccc1)*

By logP is commonly meant the decadic logarithm of the partition coefficient of the neutral form, usually between octanol and water. A high value points to a more lipophilic compound. `Oc1cc(Cl)c(NC2=NCCN2)c(Cl)c1` yielded a logP of 1.52.
`O=[N+]([O-])C=Cc1ccc(O)cc1` came in with a logP of 2.12.
Next, `CN(Cc1ccccc1)N=Nc1ccc(C#N)cc1`: 3.82; `COC12C(COC(N)=O)C3=C(C(=O)C(C)=C(N)C3=O)N1CC1C2N1COC(=O)c1ccccc1` (centres undefined): 1.26; `COP(=O)(OC)Oc1ccc([N+](=O)[O-])cc1Cl`: 1.83.
Next, `CCCCCCCCCCCCCC[n+]1ccc(C)c(C)c1.[I-]`: 2.93; `CCOC(=O)N(C)SN(C)C(=O)ON=C(C)SC`: 1.9; `CN(C)c1ccc(N=C2C=CC(=O)C=C2)cc1`: 2.02.
To `C[N+](C)(C)Cc1ccncc1.[Br-]` belongs -3.95.
`Cc1c([N+](=O)[O-])cc(C(N)=O)cc1[N+](=O)[O-]` showed a logP of 0.68.
To `OCCCCn1nnc2ccccc21` belongs 1.03; to `CN(C)c1ccc2c(c1)C(c1ccccc1)=NCC(=O)N2C`, 2.63; to `CC(=O)c1ccc(N2C(N)=NC(N)=NC2(C)C)cc1`, -0.04.
To `C=CCC1(C2=CCCC2)C(=O)NC(=O)N(C)C1=O` (centres undefined) belongs 1.89; to `Nc1ccc(C(=O)Oc2ccc(Cl)cc2Cl)c(O)c1`, 4.27; to `N=C(N)NC(=O)Nc1ccc([N+](=O)[O-])c(Cl)c1`, 1.79.
Next, `CN(C)C(=O)c1cc(N2CC2)c([N+](=O)[O-])cc1[N+](=O)[O-]`: 0.63; `O=S1(=O)NC(C2CC3C=CC2C3)=Nc2ccccc21` (centres undefined): 2.06; `O=C(NC1CC1)c1cc(N2CC2)c([N+](=O)[O-])cc1[N+](=O)[O-]`: 0.74.
For `ClC1C(Cl)C(Cl)C(Br)C(Cl)C1Cl` (centres undefined), the logP amounted to 3.74.
Next, `COC(=O)C(C#N)=NNc1ccc(Cl)cc1C`: 4.3; `CCOC(=O)CCCCCN1C(=O)C=CC1=O`: 1.5; `CC(=O)c1ccccc1NC(=O)C(Cl)Cl`: 2.65.
Next, `C[N+](C)(C)Cc1ccccn1.[Br-]`: -3.4; `CCCCCCCCCCCCCCCC[n+]1ccc(C)cc1C.[I-]`: 3.9.
Next, `O=C(c1ccncc1)c1ccccc1O`: 2.13; `CCCOC(=O)NC`: 0.95.
For `CSc1nnc(CC(C)C)c(=O)n1N`, the logP worked out at 1.39.
With `O=S1(=O)N=C(Cc2ccccc2)Nc2ccccc21`, the logP came out at 1.89.
Next, `[N-]=[N+]=CC(=O)NCC(=O)NCCO`: -1.35; `CSC(C)=NOC(=O)N(C)SN(C)C(=O)c1ccccc1`: 2.2.
To `CON(C)C(=O)Nc1ccc(OCc2ccccc2)cc1` belongs 3.11; to `COc1ccc(Br)cc1Cc1cnc(N)nc1N`, 2.44; to `CC(C)(C)NC(=O)NN`, -0.81.
Next, `CCOC(=O)CCCN1C(=O)C=CC1=O`: 0.67; `CCN(CC)/N=N/c1nc[nH]c1C(N)=O`: 0.78; `N=C(N)NC(=O)Nc1ccc(Cl)c(Cl)c1`: 2.39.
In turn, `CCOC(=O)CCCCCn1nnc2ccccc21` showed a logP of 2.68.
Next, `O=[N+]([O-])c1cnc(NC2=NCCN2CCO)s1`: 1.23; `O=CNC=Cc1ccccc1`: 1.95; `CC(=O)CNc1ccccc1C(N)=O`: 0.61.
To `CCc1cccc(CC)c1NC1=NCCN1` belongs 2.48.
To `CCN(CC)CCNC(=O)c1cc(F)ccc1OC` belongs 2.62.
For the molecule `Cc1nonc1-c1ccccn1`, the logP was found to be 2.09.
As to `Clc1ccc(-c2cc(Cl)ccc2Cl)cc1`, the logP was determined as 5.69.
To `Nc1nc(N)nc(-c2cc(Cl)ccc2F)n1` belongs 1.81; to `NC(=O)c1ccc(Cl)nn1`, 0.
To `Nc1cnccn1` belongs -0.07.
`COc1ccc(Cc2cnc(N)nc2N)c(OC)n1` had a logP of 2.01.
To `CCN1C(=O)SC(=Cc2ccc([N+](=O)[O-])o2)C1=O` belongs 2.29; to `CCCC(C)C1(CC)C(=O)NC(=O)N(C)C1=O` (centres undefined), 2.45; to `COc1ccccc1N1C(=O)CCC1=O`, -0.02.
As to `COC1OCC(O)C(NC(=O)N(C)N=O)C1O` (centres undefined), the logP is -1.08.
`COc1nc(-c2ccccc2)c2ccccc2n1` registered a logP of 3.5.
To `Cc1cc(C)c(NC2=NCCN2)c(Cl)c1` belongs 2.1; to `COc1ccc2c(c1)N=C(C)NS2(=O)=O`, 0.56.
Next, `COc1ccc(OC)c(NC2=NCCN2)c1`: 0.97; `CC1CN(N=O)C(C)CN1N=O` (centres undefined): 0.15; `OCC1OC(Sc2ccccc2)C(O)C(O)C1O` (centres undefined): -0.56.
To `CC(=O)Oc1ccccc1F` belongs 1.76; to `[Br-].c1ccc(C[n+]2cccc3ccccc32)cc1`, -0.82; to `CN(C=O)c1ccc(S(=O)(=O)N(C)C)cc1`, 0.4.
For the molecule `CC1=CC(=O)N2C=CCCC2(C)N1` (centres undefined), the logP was 0.69.
Next, `CC(C)=CC1C(C(=O)OCc2cccc([N+](=O)[O-])c2)C1(C)C` (centres undefined): 5.2; `CCOC(=O)CN(C(=O)CCl)c1ccccc1`: 1.6; `O=NN(CCCl)C(=O)NC1CCSCC1`: 2.07.
To `ClC1C(Cl)C(Cl)C(Br)C(Br)C1Cl` (centres undefined) belongs 3.88; to `O=C(O)c1ccccc1Nc1cccc([N+](=O)[O-])c1`, 4.57; to `CCCCOCc1c(CO)cnc(C)c1O`, 1.34.
In the case of `COc1cc(Cc2cnc(N)nc2N)cc(I)c1OC`, the logP was determined as 2.33.
To `N#Cc1cccc(N2C(=O)CCC2=O)c1` belongs 0.02.
To `O=C1C=CC(=NO)c2ccccc21` belongs 2.27.
Next, `CC(C)(C)C(=O)C(C#N)=NNc1cc(Cl)c(Cl)cc1Cl`: 5.86.
Take `OCC1OC(Oc2ccc(I)cc2)C(O)C(O)C1O` (centres undefined): the logP was found to be 0.75.
Next, `CC(C)CN(CC(C)C)C(=O)C=Cc1ccc2c(c1)OCO2`: 4.37; `CC(=O)OCC1=C(C(=O)O)N2C(=O)C(NC(=O)C(O)c3ccccc3)C2SC1` (centres undefined): -0.44.
To `CC(=O)Nc1cccc(OC(C)=O)c1` belongs 1.03; to `CNc1cc(Cc2cnc(N)nc2N)cc(N(C)C)c1OC`, 1.56.
To `S=C=NCc1ccc2ccccc2c1` belongs 4.42.
Turning to `COc1cccc(NC=O)c1`, the logP came out at 1.25.
Next, `NS(=O)(=O)NS(=O)(=O)Nc1ccccc1`: 0.02; `CCOC(=O)C(=Cc1cccc(OC)c1)C(=O)OCC`: 3.18; `CCCCCNc1ccc(C(=O)OCCN(C)C)cc1`: 4.14.
Next, `CC(C)C(NC(=O)C(Cc1ccccc1)NC(=O)OCc1ccccc1)C(=O)O` (stereo not drawn) (Cbz-Phe-Val-OH; configuration not given here): 2.88; `CCOP(N)(=O)SCC` (centres undefined): 0.15; `CC(=O)c1ccc(NS(=O)(=O)C(F)(F)F)cc1`: 2.83.
The molecule `CN(C)N=Nc1cccc([N+](=O)[O-])c1` registered a logP of 2.75. The logP values of the last two molecules are within 0.2 log units of each other.
Next, `CCOC(=O)C(C#N)=NNc1cc(Cl)cc(Cl)c1`: 3.82; `CCC(CC)(OC)C(=O)NC(N)=O`: 0.96.
To `CCC(C)N(C)/N=N/c1nc[nH]c1C(N)=O` (centres undefined) belongs 1.08; to `CNP(=O)(OC)SC` (centres undefined), -0.07; to `COc1cc(Cc2cnc(N)nc2N)cc(OC)n1`, 1.64.
Next, `COc1cccc(NS(=O)(=O)C(F)(F)F)c1`: 3.13.
As to `Nc1ccc(OC2OC(CO)C(O)C(O)C2O)cc1` (centres undefined), the logP was -2.67.
To `CSc1ccccc1C1=NCC(=O)Nc2ccc(Cl)cc21` belongs 2.99.
Turning to `Cc1ccc(C(=N)c2ccc(C)cc2)cc1`, the logP was 3.71.
To `C[N+](C)(C)Cc1cccc([N+](=O)[O-])c1.[Br-]` belongs -2.66.
To `CCC(=O)Nc1n[nH]c(NC(=O)CC)n1` belongs 0.07; to `CN1C(C(=O)Nc2nccs2)C(=O)c2ccccc2S1(=O)=O` (centres undefined), 1.64; to `O=[N+]([O-])c1cc2nc(C(F)(F)F)[nH]c2cc1Cl`, 3.21.
On to `CC(O)Cn1ccnc1[N+](=O)[O-]` (centres undefined), for which the logP is -0.16.
To `CN(C)C(=O)Cc1ccsc1` belongs 0.65; to `S=C=Nc1ccc(-c2ccc(N=C=S)cc2)cc1`, 5.5.
Next, `CC1(C)N=C(N)N=C(N)N1c1ccc(I)cc1`: 1.39; `N#Cc1ccc(OC(=O)CNC(=O)c2ccccc2)cc1`: 2.11; `COc1cc(S(=O)(=O)CC(O)c2ccccc2)cc(OC)c1OC` (centres undefined): 1.65.
To `CNC(=O)O/N=C/C(C)(C)S(C)(=O)=O` belongs -0.57; to `CCC1=Nc2cc(Cl)ccc2S(=O)(=O)N1`, 1.61; to `Cc1cc(C)nc(-n2c(C)cc(=O)n2C)n1`, 0.51.
In turn, `NC(=O)NN=CCCc1ccccc1` showed a logP of 2.32.
Regarding `CN(C)/N=N/c1ccccc1C(=O)NC#N`, the logP was found to be 0.8.
To `COc1ccc(CCCC(=O)O)cc1` belongs 2.33.
Next, `CC(=O)C(C#N)=NNc1ccc([N+](=O)[O-])cc1[N+](=O)[O-]`: 3.4; `CCOC(=O)c1ccc2ncccc2c1`: 2.64.
Turning to `COCc1c(OC)cc(Cc2cnc(N)nc2N)cc1OC`, the logP turned out to be 1.19.
Next, `CS(=O)(=O)c1cccc(OCC(=O)O)c1`: 0.01.
Next, `Cc1cc(C)cc(NC(=O)N(C)C)c1`: 1.9; `CCCC(=O)N(C)SN(C)C(=O)ON=C(C)SC`: 2.2.
In the case of `CC(=O)N(C)c1c(I)c(C(=O)NCC(O)CO)c(I)c(C(=O)NCC(O)CO)c1I` (centres undefined), the logP was -2.06.
Turning to `CCCNCC(=O)NC(=O)C=[N+]=[N-]`, the logP is -0.24.
Next, `O=S1(=O)NC(CCl)=Nc2cc(Cl)ccc21`: 1.68.
Next, `CCOC(=O)C(C#N)=NNc1cc(C(F)(F)F)ccc1Cl`: 4.45; `COP(=O)(Oc1cc(Cl)c(Br)cc1Cl)c1ccccc1` (centres undefined): 4.58; `COc1ccccc1C1=NCC(=O)Nc2ccc(Cl)cc21`: 2.63.
